This passage reports Km and Vmax results from US20080194701A1, “Bifunctional Enzyme with Y-Glutamylcysteine Synthetase and Glutathione Synthetase Activity and Uses Thereof” (priority 2004, published 2008).

Broadly, the Km is the concentration of substrate that gives half-maximal velocity.

One experiment deals with S. mutans γ-GCS-GS (Streptococcus mutans serotype c, UniProt Q8DW15). Description: γ-GCS activity of S. mutans γ-GCS-GS. The following applies: substrate Km, γ-GCS activity. An excerpt: 3′ and 5′ […] 3′ and introduced unique Bgl II and Hind III sites (underlined), respectively.
Chain of S. mutans γ-GCS-GS (Q8DW15 whole entry): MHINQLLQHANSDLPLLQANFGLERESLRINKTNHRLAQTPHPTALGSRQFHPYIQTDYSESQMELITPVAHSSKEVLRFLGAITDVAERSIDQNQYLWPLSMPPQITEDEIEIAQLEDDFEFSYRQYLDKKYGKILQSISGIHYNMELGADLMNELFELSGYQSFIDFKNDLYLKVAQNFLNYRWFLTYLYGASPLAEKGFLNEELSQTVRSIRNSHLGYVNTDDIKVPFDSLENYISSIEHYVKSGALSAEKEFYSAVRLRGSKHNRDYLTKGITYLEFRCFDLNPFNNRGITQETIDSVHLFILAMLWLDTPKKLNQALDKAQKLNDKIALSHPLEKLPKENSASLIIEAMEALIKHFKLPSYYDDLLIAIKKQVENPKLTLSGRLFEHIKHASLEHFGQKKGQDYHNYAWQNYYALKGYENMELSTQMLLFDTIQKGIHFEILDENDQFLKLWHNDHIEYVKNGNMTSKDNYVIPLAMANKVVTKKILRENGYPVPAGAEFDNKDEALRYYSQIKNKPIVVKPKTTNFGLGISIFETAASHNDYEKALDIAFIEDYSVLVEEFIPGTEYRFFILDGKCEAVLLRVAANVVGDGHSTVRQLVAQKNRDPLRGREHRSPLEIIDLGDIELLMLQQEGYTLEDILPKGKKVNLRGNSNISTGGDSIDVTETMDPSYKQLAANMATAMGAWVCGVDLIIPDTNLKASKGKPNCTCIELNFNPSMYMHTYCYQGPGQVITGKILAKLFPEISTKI
Another experiment concerns the target T1, Human γ-GCS (Homo sapiens, UniProt P48506).
T1 sequence (P48506 1-637): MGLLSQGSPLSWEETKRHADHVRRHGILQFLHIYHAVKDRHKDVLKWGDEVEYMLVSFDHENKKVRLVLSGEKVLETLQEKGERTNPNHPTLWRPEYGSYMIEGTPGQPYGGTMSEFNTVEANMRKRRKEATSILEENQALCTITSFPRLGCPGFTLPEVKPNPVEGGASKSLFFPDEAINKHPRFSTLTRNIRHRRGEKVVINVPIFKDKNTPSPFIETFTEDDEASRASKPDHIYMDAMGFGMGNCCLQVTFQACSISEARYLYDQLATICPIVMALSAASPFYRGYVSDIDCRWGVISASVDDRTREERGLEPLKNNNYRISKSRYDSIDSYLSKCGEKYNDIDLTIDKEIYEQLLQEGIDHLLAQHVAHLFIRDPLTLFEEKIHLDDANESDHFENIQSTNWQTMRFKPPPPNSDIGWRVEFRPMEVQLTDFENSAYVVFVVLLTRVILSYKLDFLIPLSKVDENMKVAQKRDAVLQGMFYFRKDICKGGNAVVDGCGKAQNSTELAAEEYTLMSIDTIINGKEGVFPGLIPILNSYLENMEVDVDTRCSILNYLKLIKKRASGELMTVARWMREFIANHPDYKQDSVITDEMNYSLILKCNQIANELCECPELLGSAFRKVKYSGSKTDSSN
T1 sequence (P48507 1-274 partner): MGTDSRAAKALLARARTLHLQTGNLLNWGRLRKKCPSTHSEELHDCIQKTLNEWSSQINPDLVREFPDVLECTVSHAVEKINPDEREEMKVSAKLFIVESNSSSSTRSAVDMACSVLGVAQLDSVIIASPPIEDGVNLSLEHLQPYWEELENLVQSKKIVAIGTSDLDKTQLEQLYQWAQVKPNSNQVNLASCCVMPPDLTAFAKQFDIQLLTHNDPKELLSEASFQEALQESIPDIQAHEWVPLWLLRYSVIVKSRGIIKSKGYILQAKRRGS
The following applies: cited from earlier work.

In another experiment the target is E. coli GS (Escherichia coli, UniProt P04425). The following applies: cited from earlier work.
Chain of E. coli GS (P04425 whole entry): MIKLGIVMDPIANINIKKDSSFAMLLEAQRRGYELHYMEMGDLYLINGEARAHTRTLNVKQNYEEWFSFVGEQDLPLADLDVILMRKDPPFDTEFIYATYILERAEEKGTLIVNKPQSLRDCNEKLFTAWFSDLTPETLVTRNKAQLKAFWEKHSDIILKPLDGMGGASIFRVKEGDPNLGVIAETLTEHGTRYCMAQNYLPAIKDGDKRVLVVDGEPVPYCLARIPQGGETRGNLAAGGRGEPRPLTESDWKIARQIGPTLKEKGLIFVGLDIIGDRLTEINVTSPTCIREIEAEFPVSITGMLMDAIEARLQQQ
For another experiment, the target named is T2, Human GS (Homo sapiens, UniProt P48637).
T2 sequence (P48637 1-474): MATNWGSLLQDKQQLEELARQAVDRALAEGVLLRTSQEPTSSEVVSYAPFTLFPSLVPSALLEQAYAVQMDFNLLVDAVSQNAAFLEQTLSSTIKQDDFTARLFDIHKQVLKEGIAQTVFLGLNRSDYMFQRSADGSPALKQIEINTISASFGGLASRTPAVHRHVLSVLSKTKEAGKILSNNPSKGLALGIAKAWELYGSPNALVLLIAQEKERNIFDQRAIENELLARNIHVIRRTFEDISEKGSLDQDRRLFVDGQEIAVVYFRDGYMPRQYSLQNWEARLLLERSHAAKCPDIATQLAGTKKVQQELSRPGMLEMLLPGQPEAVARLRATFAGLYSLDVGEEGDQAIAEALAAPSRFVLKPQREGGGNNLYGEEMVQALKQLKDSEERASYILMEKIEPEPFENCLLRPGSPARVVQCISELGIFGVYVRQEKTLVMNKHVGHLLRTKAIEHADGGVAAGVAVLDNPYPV
Particulars: cited from earlier work.

The target in experiment [1] is T3, E. faecalis γ-GCS-GS (Enterococcus faecalis, UniProt Q82ZG8). Put plainly: GS activity of E. faecalis γ-GCS-GS. The following applies: substrate Km, GS activity.
T3 sequence (Q82ZG8 whole entry): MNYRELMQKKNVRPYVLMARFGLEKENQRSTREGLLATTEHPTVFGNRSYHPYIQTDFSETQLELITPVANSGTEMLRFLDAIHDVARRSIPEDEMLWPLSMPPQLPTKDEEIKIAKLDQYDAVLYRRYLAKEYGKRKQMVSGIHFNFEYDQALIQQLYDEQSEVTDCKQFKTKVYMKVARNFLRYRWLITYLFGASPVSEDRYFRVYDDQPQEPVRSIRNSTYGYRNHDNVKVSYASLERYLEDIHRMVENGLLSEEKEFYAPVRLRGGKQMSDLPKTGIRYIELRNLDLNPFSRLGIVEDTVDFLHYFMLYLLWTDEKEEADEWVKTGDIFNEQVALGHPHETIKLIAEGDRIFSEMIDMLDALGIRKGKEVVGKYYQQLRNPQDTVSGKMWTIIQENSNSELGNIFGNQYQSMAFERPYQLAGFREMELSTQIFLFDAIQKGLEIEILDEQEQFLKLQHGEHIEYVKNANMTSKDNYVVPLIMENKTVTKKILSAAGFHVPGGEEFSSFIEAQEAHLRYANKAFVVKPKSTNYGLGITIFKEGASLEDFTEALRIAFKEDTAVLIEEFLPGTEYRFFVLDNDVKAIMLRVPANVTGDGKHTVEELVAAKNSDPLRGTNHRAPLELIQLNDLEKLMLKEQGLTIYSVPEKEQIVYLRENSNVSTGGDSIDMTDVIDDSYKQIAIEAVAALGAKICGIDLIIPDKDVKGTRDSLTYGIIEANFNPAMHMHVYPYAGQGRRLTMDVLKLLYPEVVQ
Experiment [2] concerns the target T3, E. faecalis γ-GCS-GS. Description: γ-GCS activity of E. faecalis γ-GCS-GS. The following applies: substrate Km, γ-GCS activity.

Regarding `Nc1ncnc2c1ncn2[C@@H]1O[C@H](COP(=O)(O)OP(=O)(O)OP(=O)(O)O)[C@@H](O)[C@H]1O` [ATP], the Michaelis constant (Km) at S. mutans γ-GCS-GS was 288 ± 105 µM; at Human γ-GCS (substrate Km) it was 400 ± 40 µM; at E. coli GS (substrate Km), 1800 µM; on Human GS (substrate Km), 220 ± 30 µM; at E. faecalis γ-GCS-GS [1] it was 179 ± 5 µM; on E. faecalis γ-GCS-GS [2], 2300 ± 100 µM. The Vmax is listed as around 1500 units/mg on Human γ-GCS (unit = 1 μmol product per hour), 650 units/mg at E. coli GS and 361 ± 84 units/mg at Human GS.
